Measurements published in ChEMBL document CHEMBL3217506, “Amidines bearing benzofuroxan or benzimidazole 1,3-dioxide core scaffolds as Trypanosoma cruzi-inhibitors: structural basis for their interactions with cruzipain” (Medchemcomm, 2012).

Columns and labels:
[1] = system: Trypanosoma cruzi; test: Antitrypanosomal activity against epimastigote stage of Trypanosoma cruzi Tulahuen 2 after 5 days relative to untreated control; format: functional; settings: Tulahuen 2, 120 h, read-out: ID50 (the source's name)
[2] = target: Cruzipain (Trypanosoma cruzi) (UniProt P25779); test: Inhibition of Trypanosoma cruzi cruzipain using Z-Phe-Arg-AMC as substrate at 100 uM at pH 5.3 after 10 mins by spectrofluorimetry relative to untreated control
[3] = Selectivity index, ratio of ID50 for human RBC to ID50 for epimastigote stage of Trypanosoma cruzi Tulahuen 2
[4] = Cytotoxicity against human RBC assessed as hemolytic activity after 24 hrs by spectrophotometry; format: cell-based, Erythrocyte; settings: human red blood cells (RBC), read-out: ID50
[5] = target: Cruzipain (Trypanosoma cruzi) (UniProt P25779); test: Inhibition of Trypanosoma cruzi cruzipain using Z-Phe-Arg-AMC as substrate at pH 7.4 after 10 mins by spectrofluorimetry relative to untreated control
[6] = target: Cruzipain (Trypanosoma cruzi) (UniProt P25779); test: Inhibition of Trypanosoma cruzi cruzipain using Z-Phe-Arg-AMC as substrate at 100 uM at pH 5.3 after 10 mins by spectrofluorimetry in presence of Triton X-100 relative to untreated control
[7] = target: Cruzipain (Trypanosoma cruzi) (UniProt P25779); test: Inhibition of Trypanosoma cruzi cruzipain using Z-Phe-Arg-AMC as substrate at 100 uM at pH 7.4 after 10 mins by spectrofluorimetry relative to untreated control

Cruzipain (Trypanosoma cruzi), sequence (P25779 123-467 limits assumed): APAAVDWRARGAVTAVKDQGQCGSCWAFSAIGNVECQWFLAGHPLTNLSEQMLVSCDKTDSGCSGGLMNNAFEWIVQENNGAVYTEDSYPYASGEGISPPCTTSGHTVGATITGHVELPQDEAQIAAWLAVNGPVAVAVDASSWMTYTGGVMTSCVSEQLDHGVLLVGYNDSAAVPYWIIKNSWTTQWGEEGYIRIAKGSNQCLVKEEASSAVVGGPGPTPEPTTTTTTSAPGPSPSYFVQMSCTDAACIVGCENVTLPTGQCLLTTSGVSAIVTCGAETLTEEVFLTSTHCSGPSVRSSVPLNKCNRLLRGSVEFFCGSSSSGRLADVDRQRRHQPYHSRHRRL

Compound | IC50 [1] [µM] | inhibition [2] [%] | Selectivity Index [3] | HC50 at 24 h [4] [µM] | ID50 [5] [µM] | inhibition [6] [%] | inhibition [7] [%]
O=C(Cn1ccnc1[N+](=O)[O-])NCc1ccccc1 [BENZNIDAZOLE] | 7.4 | – | – | – | – | – | –
c1ccc(/N=C(/Nc2ccccc2)N2CCNCC2)cc1 | – | 6.3 | – | – | – | – | –
c1ccc(N/C(=N/Cc2ccco2)N2CCNCC2)cc1 | – | 10 | – | – | – | – | –
C[C@@H]1[C@H](O)[C@@H](C)/C=C/C=C/C=C/C=C/C=C/C=C/C=C/[C@H](O[C@@H]2O[C@H](C)[C@@H](O)[C@H](N)[C@@H]2O)C[C@@H]2O[C@](O)(C[C@@H](O)C[C@@H](O)[C@H](O)CC[C@@H](O)C[C@@H](O)CC(=O)O[C@H]1C)C[C@H](O)[C@H]2C(=O)O | – | – | 10 | – | – | – | –
CC1CS(=O)(=O)CCN1/N=C/c1ccc([N+](=O)[O-])o1 (stereo unspecified) [NIFURTIMOX] | 7.7 | – | > 13 | > 100 | – | – | –
N=C(N/N=C/c1ccc(O)cc1)SCc1ccc2no[n+]([O-])c2c1 | 6.8 | – | – | – | 64.5 | – | –
O=S(=O)(/C=C/c1ccc2no[n+]([O-])c2c1)c1ccccc1 | 1.6 | – | – | – | > 50 | – | –
N=C(N)N/N=C/c1ccc(OCc2ccc3no[n+]([O-])c3c2)cc1 | > 25 | – | – | – | 32 | – | –
[O-][n+]1onc2ccc(CN3CCN(/C(=N/c4ccccc4)NCc4ccco4)CC3)cc21 | 15 | 44 | > 13 | > 200 | 100 | 45 | 0.3
[O-][n+]1onc2ccc(CN3CCN(/C(=N/c4ccccc4)Nc4ccccc4)CC3)cc21 | 5.8 | 47 | 18 | 105 | 100 | – | 12
c1ccc(CC/N=C(/Nc2ccccc2)N2CCNCC2)cc1 | – | 3.2 | – | – | – | – | –
CC1(C)[N+]([O-])=c2ccc(CN3CCN(/C(=N/c4ccccc4)NCc4ccccc4)CC3)cc2=[N+]1[O-] | – | – | – | > 36 | – | – | 34
c1ccc(C/N=C(/Nc2ccccc2)N2CCNCC2)cc1 | – | 5.4 | – | – | – | – | –
[O-][n+]1onc2ccc(CN3CCN(/C(=N/c4ccccc4)NCCc4ccccc4)CC3)cc21 | 1.2 | 34 | 31 | 37 | > 100 | – | 25
CC/C(=N\N=C(\N)S)c1cccc(Br)c1 | – | – | – | – | 0.1 | – | –
CC1(C)[N+]([O-])=c2ccc(CN3CCN(/C(=N/c4ccccc4)NCc4ccco4)CC3)cc2=[N+]1[O-] | – | – | – | > 200 | – | – | 15
CC1(C)[N+]([O-])=c2ccc(CN3CCN(/C(=N/c4ccccc4)NCCc4ccccc4)CC3)cc2=[N+]1[O-] | 1 | – | > 50 | > 50 | – | – | 30
[O-][n+]1onc2ccc(CN3CCN(/C(=N/c4ccccc4)NCc4ccccc4)CC3)cc21 | – | 11 | – | 83 | – | – | 29
